According to US20080058642A1, “METHOD FOR DETECTING CORONARY ENDOTHELIAL DYSFUNCTION AND EARLY ATHEROSCLEROSIS” (BOARD OF REGENTS OF THE UNIVERSITY OF TEXAS SYSTEM, priority 2006, published 2008):

How the values were obtained:
[1] = system: myocardial perfusion; assay: Rest-dipyridamole myocardial perfusion PET with Markovian homogeneity analysis; assay type: in vivo, human
Source text: Study Patients. The population for this study consists of 1,034 consecutive subjects undergoing diagnostic, rest-dipyridamole, myocardial perfusion PET at The Weatherhead PET Center For Preventing and Reversing Atherosclerosis of the University of Texas Medical School—Houston. All subjects signed informed consent approved by the Committee for the Protection of Human Subjects of the University of Texas Health Science Center. A complete medical history was obtained on all patients undergoing diagnostic cardiac PET for assessment or follow-up of known CAD, for second opinions on revascularization procedures, for prior positive stress tests, for coronary calcification by CT, for chest pain or other symptoms, for screening, or for risk factors. A history of risk factors was obtained for age, sex, diabetes, hypertension, high cholesterol, family history of vascular disease, excess weight, lack of exercise, and past or present smoking, that were counted as positive even if treated, as with hypertensive or lipid-lowering medications.
PET. Patients were instructed to fast for 4 h and abstain from caffeine, theophylline, and cigarettes for 24 h before study. PET was performed using the University of Texas designed, Positron Posicam Auricle, bismuth germanate, 2-dimensional (2D) multislice tomograph with a reconstructed resolution of 10-mm full width at half maximum. Using a rotating rod source containing 148-185 MBq (4-5 mCi) of ^68Ge, transmission images to correct for photon attenuation contained approximately 40-60 million counts. Emission images obtained after intravenous injection of 925-1,850 MBq (25-50 mCi) of generator-produced ^82Rb contained 20-50 million counts depending on the age of the generator and size of the patient. After resting ^82Rb data acquisition, dipyridamole (0.142 mg/kg/min) was infused for 4 min. At 4 min after completion of the dipyridamole infusion, the same dose of ^82Rb was given intravenously.
Automated Quantitative Analysis of PET Images. […]

[2] = target: T1, endothelin 1A receptor (Sus scrofa, UniProt Q29010); details: porcine saphenous vein-carotid artery interposition grafts; cited from earlier work
T1 construct: host or cells: in vivo, porcine vein grafts
T1 sequence (Q29010 21-427): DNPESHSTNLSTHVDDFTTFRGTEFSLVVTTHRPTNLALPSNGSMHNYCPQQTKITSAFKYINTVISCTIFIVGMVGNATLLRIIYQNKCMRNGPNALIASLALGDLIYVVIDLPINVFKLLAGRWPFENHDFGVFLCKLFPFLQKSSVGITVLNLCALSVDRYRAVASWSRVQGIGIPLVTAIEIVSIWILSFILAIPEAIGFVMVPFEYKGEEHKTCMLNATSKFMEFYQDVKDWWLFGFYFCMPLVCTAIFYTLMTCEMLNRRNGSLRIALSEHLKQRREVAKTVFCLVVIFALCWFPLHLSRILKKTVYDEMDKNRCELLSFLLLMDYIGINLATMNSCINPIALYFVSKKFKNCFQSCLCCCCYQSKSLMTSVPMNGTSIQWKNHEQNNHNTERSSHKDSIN

[3] = system: healthy adult hound dogs (left circumflex coronary artery, LCx, territory); assay: Endothelin-induced myocardial perfusion defects by 82Rb PET imaging in dogs; assay type: in vivo, dog; details: for AD i.c. pre-ET: LCx 82Rb uptake as % of baseline: intracoronary adenosine before ET-1; for AD i.c. post-ET: LCx 82Rb uptake as % of baseline: intracoronary adenosine after ET-1; for AD i.v.: LCx 82Rb uptake as % of baseline: intravenous adenosine 0.142 mg/kg/min after ET-1; for severity of perfusion defect after intracoronary infusion: intracoronary into LCx for 10 min, L-NMMA 100-400 μg/kg/min in five dogs vs ET-1
Procedure: Experimental Preparation. The experimental protocol was approved by the Animal Welfare Committee of the University of Texas Health Sciences Center at Houston. After an overnight fast, healthy adult hound dogs (n=14) of both sexes, 21-35 kg, were anesthetized with 30 mg/kg pentobarbital sodium (Nembutal) and underwent endotracheal intubation and mechanical ventilation with adequate anesthesia maintained by small supplemental doses during the experiment. Arterial blood gases were maintained within physiological range by adjusting the mechanical ventilator with supplemental oxygen, core body temperature was maintained at 37° C. with a homeothermic blanket, and stable body position was maintained throughout the duration of the imaging protocol by using a specially designed portable cradle for both coronary arteriography and PET imaging without moving the dog strapped to the portable cradle.
Arterial access was obtained via the right femoral artery by standard Seldinger technique with an arterial micropuncture kit (Cook, Bloomington, Ind.) with a 6-F arterial sheath. All animals received 100 IU/kg of initial heparin bolus, with 50 IU/kg every hour for the duration of the experiment. A 6-F standard JL3 VistaBrite coronary guide catheter (Cordis-Cardiology, Miami Lakes, Fla.) was positioned under fluoroscopic guidance into the left main coronary artery ostium.
After a stable position for the guide catheter was obtained, a 0.014-in.-diameter Hi-Torque Whisper guide wire (Guidant, Indianapolis, Ind.) was placed in the left circumflex coronary artery (LCx). Over the coronary wire, a 2.3-F, 150-cm-long, 0.042-in.-minimal diameter Rapidtransit infusion catheter (Cordis-Cardiology) was positioned in the LCx, with the tip in the midsegment of the LCx artery proximal to the takeoff of the first large obtuse marginal branch. The guide wire was removed, the guide catheter was withdrawn into the aortic root, and the small catheter was left in place in the mid-LCx.
Experimental Protocol. Contrast angiograms were obtained to document the LCx as the dominant coronary artery and the small catheter position in the mid-LCx. With contrast solution diluted 50% with normal saline, different injection rates were tested to determine the rate at which back flow occurred into the proximal segment of the coronary artery. […] Dogs were then moved into the PET scanner without changing position on the special cradle, and a repeat subselective angiogram was performed under fluoroscopy on the PET imaging table to ensure that the small intracoronary infusion catheter positioned in the mid-LCx had not changed during transportation. PET imaging was carried out with the University of Texas-designed Posicam BGO multislice tomograph HZL/mPower (Positron, Houston) as previously described (e.g., Halcox et al., Circulation 106:653-658, 2002), with a reconstructed resolution of 10-mm full-width half-maximum. Images were acquired in two-dimensional mode with extended septa to minimize scattered counts with random coincidences corrected from the singles count rate.
On the basis of a 5-min positioning transmission scan, dogs were precisely positioned in the PET scanner and laser guides aligned to external body markers were used to check correct position for every image acquisition. With a rotating rod source containing 4-5 mCi of ^68Ge, transmission images to correct for photon attenuation contained about 70-90 million counts. Emission images obtained after intravenous injection of […]-1,110 MBq (25-30 mCi) of generator-produced rubidium-82 (^82Rb) contained about 20-30 million counts. The protocol used the following imaging sequence as illustrated in FIG. 7.
Step 1. Immediately after completion of a resting perfusion image with intravenous ^82Rb, 3 mg/ml adenosine (Fujisawa Healthcare, Deerfield, Ill.) was infused subselectively into the LCx for 4 min at 2 ml/min. […]

[4] = intracoronary ET-1 1.5-3.5 ng/kg/min for 10 min, repeated doses in six dogs

SMILES: OCCN(CCO)c1nc(N2CCCCC2)c2nc(N(CCO)CCO)nc(N3CCCCC3)c2n1 [dipyridamole]
- lowest mean average quadrant activity on the dipyridamole scan ([1]; patient with severe stress-induced perfusion defect): 63 % of maximum
- homogeneity index by Markovian analysis after dipyridamole ([1]; patient with severe stress-induced perfusion defect, 0.34 at rest): 0.49
- homogeneity index by Markovian analysis after dipyridamole ([1]; young healthy volunteer without risk factors, 0.80 at rest): 0.83

SMILES: Cc1cc(C)nc(O[C@H](C(=O)O)C(C)(c2ccccc2)c2ccccc2)n1 [BSF 302146, [+]-[S]-2-[4,6-dimethyl-pyridimin-2-yloxy]-3,3-diphenyl-butanoic acid]
- inhibition of neointimal and medial thickening [2]: potent inhibitor

SMILES: Nc1ncnc2c1ncn2[C@@H]1O[C@H](CO)[C@@H](O)[C@H]1O [adenosine]
- ΔAD i.c − ET (percent change in LCx uptake) ([3]; Group 1): 8.7%
- ΔAD i.v. − ET (change of defect after intravenous adenosine) ([3]; Group 1): +4.1%
- AD i.c. pre-ET: LCx 82Rb uptake as % of baseline ([3]; Group 1 (n = 8, defect improved after i.v. adenosine)): 102%
- AD i.c. pre-ET: LCx 82Rb uptake as % of baseline ([3]; Group 1 (n = 8, defect improved after i.v. adenosine), listed as AD): 102.0 ± 5.5%
- AD i.c. post-ET: LCx 82Rb uptake as % of baseline ([3]; Group 1): 98.7%
- AD i.c. post-ET: LCx 82Rb uptake as % of baseline ([3]; Group 1, listed as AD): 98.7 ± 5.5%
- AD i.v.: LCx 82Rb uptake as % of baseline ([3]; Group 1): 93.4%
- AD i.v.: LCx 82Rb uptake as % of baseline ([3]; Group 1, listed as AD): 93.4 ± 6.0%
- ΔAD i.c − ET (percent change in LCx uptake) ([3]; Group 1, listed as AD): 8.7 ± 4.3%
- ΔAD i.v. − ET (change of defect after intravenous adenosine) ([3]; Group 1, listed as AD): 4.1 ± 2.0%
- ΔAD i.c − ET (percent change in LCx uptake) ([3]; Group 2): 10.5%
- ΔAD i.v. − ET (change of defect after intravenous adenosine) ([3]; Group 2): −12.5%
- AD i.c. pre-ET: LCx 82Rb uptake as % of baseline ([3]; Group 2 (n = 15, defect not improved or worse after i.v. adenosine)): 101.3%
- AD i.c. pre-ET: LCx 82Rb uptake as % of baseline ([3]; Group 2 (n = 15, defect not improved or worse after i.v. adenosine), listed as AD): 101.3 ± 5.2%
- AD i.c. post-ET: LCx 82Rb uptake as % of baseline ([3]; Group 2): 100.5%
- AD i.c. post-ET: LCx 82Rb uptake as % of baseline ([3]; Group 2, listed as AD): 100.5 ± 4.3%
- AD i.v.: LCx 82Rb uptake as % of baseline ([3]; Group 2): 77.7%
- AD i.v.: LCx 82Rb uptake as % of baseline ([3]; Group 2, listed as AD): 77.7 ± 14.5%
- ΔAD i.c − ET (percent change in LCx uptake) ([3]; Group 2, listed as AD): 10.5 ± 8.5%
- ΔAD i.v. − ET (change of defect after intravenous adenosine) ([3]; Group 2, listed as AD): −12.5 ± 9.2%
- effect of intracoronary adenosine on ET-1-induced resting perfusion defects ([3]; all experiments): normalized
- effect of intravenous adenosine on vasoconstrictor effect of ET-1 ([3]; doses comparable to clinical practice, all 23 protocol sequences): only partially counteracted
- visual change of ET-1-induced perfusion defect after intravenous adenosine ([3]; group 1 (n=8)): improved
- visual change of ET-1-induced perfusion defect after intravenous adenosine ([3]; group 2 (n=15)): visually not improved or relatively worse

SMILES: CNC(=N)NCCC[C@H](N)C(=O)O [L-NMMA, N^G-monomethyl-L-arginine]
- severity of perfusion defect after intracoronary infusion [3]: −2.48%

SMILES: CC[C@H](C)[C@H](NC(=O)[C@H](CC(=O)O)NC(=O)[C@H](CC(C)C)NC(=O)[C@H](Cc1cnc[nH]1)NC(=O)[C@@H]1CSSC[C@H](N)C(=O)N[C@@H](CO)C(=O)N[C@H]2CSSC[C@H](NC(=O)[C@H](CCC(=O)O)NC(=O)[C@H](CCCCN)NC(=O)[C@H](CC(=O)O)NC(=O)[C@H](CCSC)NC(=O)[C@H](CC(C)C)NC(=O)[C@H](CO)NC(=O)[C@H](CO)NC2=O)C(=O)N[C@@H](C(C)C)C(=O)N[C@@H](Cc2ccc(O)cc2)C(=O)N[C@@H](Cc2ccccc2)C(=O)N1)C(=O)N[C@H](C(=O)N[C@@H](Cc1c[nH]c2ccccc12)C(=O)O)[C@@H](C)CC [ET-1, endothelin-1]
- ΔET − Baseline (severity of ET-induced defect) ([3]; Group 1): −12.7%
- ET: LCx 82Rb uptake as % of baseline ([3]; Group 1, after intracoronary ET-1, total dose 44.3 ng): 89.3%
- ET: LCx 82Rb uptake as % of baseline ([3]; Group 1, after intracoronary ET-1, total dose 44.3 ng, listed as ET): 89.3 ± 7.3%
- ΔET − Baseline (severity of ET-induced defect) ([3]; Group 1, listed as ET): −12.7 ± 6.7%
- ΔET − Baseline (severity of ET-induced defect) ([3]; Group 2): −11.1%
- ET: LCx 82Rb uptake as % of baseline ([3]; Group 2, after intracoronary ET-1, total dose 67.5 ng): 90.2%
- ET: LCx 82Rb uptake as % of baseline ([3]; Group 2, after intracoronary ET-1, total dose 67.5 ng, listed as ET): 90.2 ± 8.1%
- ΔET − Baseline (severity of ET-induced defect) ([3]; Group 2, listed as ET): −11.1 ± 11.9%
- death because of ET-1 administration [3, 4]: no animal died
- tachyarrhythmia [3, 4]: No tachyarrhythmia developed
- severity of perfusion defect after intracoronary infusion [3]: −10.13%
- duration of perfusion defect after intracoronary ET-1 infusion ([3]; pilot dose-finding, three dogs, in several instances): up to 5 h
- time at which perfusion defect was first observed ([3]; pilot dose-finding, end of initial intracoronary ET-1 infusion): ≥ 10 min
